Test results reported in patent US8673909B2, “Indole compounds and methods for treating visceral pain” (NeurAxon, Inc., priority 2007, dated 2014).
“Also recorded” adds a separate entry of the source.

Key:
[1] = molecular target: T1, Nitric oxide synthase (endothelial, human recombinant) eNOS (Homo sapiens, UniProt P29474); experiment: eNOS (human) enzyme assay, [3H]-L-arginine to L-citrulline; assay type: biochemical; conditions: Table 10, human eNOS; read-out: eNOSh
T1 construct: purchased Axxora LLC ALX-201-070
Protocol: Human nNOS and eNOS Protocol:
Procedure for Human nNOS and eNOS
Primary stock solutions of test compounds at a concentration of 6 mM are prepared. The primary stock solutions of each test compound are prepared freshly in distilled water on the day of study. […] Concentration range of test compound utilized for nNOS are 0.001 to 300 μM and for eNOS are 0.003 to 1000 μM. The vehicle of the test compound or inhibitor is used as blank control. […] The IC50 concentration of L-NAME was run in parallel as a control.
All incubations are performed in duplicate:
Prepare the reaction mixture on ice by adding the following components with a micropipette to a polypropylene microcentrifuge tube:
Start the reaction by addition of the substrate (in 5 µL containing 1 μCi of [^3H]-L-Arginine+2.5 μM of unlabeled L-Arginine) to the reaction mixture. Total reaction volume is 60 μL.
Mix using a vortex mixer and incubate the above reaction mixture at 37° C. in an incubator for 30 minutes.
Add 400 μL of ice-cold Stop Buffer at the end of the incubation period to stop the reaction. (The EDTA in the Stop Buffer chelates all of the available calcium.)
Mix using a vortex mixer and transfer the reaction samples to spin cups and centrifuge using a microcentrifuge, at 13,000 rpm for 30 sec. at room temperature.
Remove the spin cups from the holder and transfer 450 μL of eluate (containing the unbound L-citrulline) to scintillation vials. Add 3 mL of scintillation fluid and quantify the radioactivity in a liquid scintillation counter.
Calculation of IC50 Values:
Data is analyzed using a Sigmoidal dose-response (variable slope) curve to determine the IC50 value of the test compound. Y=Bottom+(Top−Bottom)/(1+10^((Log IC50−X)*Hill Slope))

5-HT1B = molecular target: T2, 5-HT1B (Rattus norvegicus, UniProt P28564); experiment: 5-HT1B binding assay (agonist radioligand), rat cerebral cortex; conditions: Table 11, rat 1B receptor binding
T2 construct: from tissue; host or cells: rat cerebral cortex
Protocol: 5-HT1D binding assays (agonist radioligand) were performed using bovine caudate membranes according to the methods of Heuring and Peroutka (J. Neurosci., 7: 894-903 (1987)). 5-HT1B (rat cerebral cortex) binding assays (agonist radioligand) were performed according to the method of Hoyer et. al. (Eur. J. Pharmacol., 118: 1-12 (1995)). For the purpose of result analysis, the specific ligand binding to the receptors is defined as the difference between the total binding and the nonspecific binding as determined in the presence of an excess of unlabelled ligand. The results are expressed as a percent of control specific binding obtained in the presence of the test compounds. IC50 values (concentration causing a half-maximal inhibition of control specific binding) and Hill coefficients (nH) were determined by non-linear regression analysis of the competition curves using Hill equation curve fitting and the inhibition constants (Ki) were calculated from the Cheng Prusoff equation (Ki=IC50/(1+(L/KD)), where L=concentration of radioligand in the assay, and KD=affinity of the radioligand for the receptor).

[2] = system: rats with L5/L6 spinal nerve ligation; experiment: Chung spinal nerve ligation (SNL) model of neuropathic-like pain; assay type: in vivo; conditions: rat, 30 mg/kg i.p.
Protocol: (a) Chung Model of Injury-induced Neuropathic-like Pain: The experimental designs for the Chung Spinal Nerve Ligation SNL Model assay for neuropathic pain are depicted in the Figure below. Nerve ligation injury was performed according to the method described by Kim and Chung (Kim and Chung, Pain 50:355-363, 1992). This technique produces signs of neuropathic dysesthesias, including tactile allodynia, thermal hyperalgesia, and guarding of the affected paw. Rats were anesthetized with halothane, and the vertebrae over the L4 to S2 region were exposed. The L5 and L6 spinal nerves were exposed, carefully isolated, and tightly ligated with 4-0 silk suture distal to the DRG. After ensuring homeostatic stability, the wounds were sutured, and the animals allowed to recover in individual cages. Sham-operated rats were prepared in an identical fashion except that the L5/L6 spinal nerves were not ligated. […] After a period of recovery following the surgical intervention, rats show enhanced sensitivity to painful and normally non-painful stimuli.

[3] = Human liver microsome in vitro metabolic stability assay; assay type: in vitro ADME; conditions: for Peak Area Ratio 0 min / Peak Area Ratio 15 min / Peak Area Ratio 30 min / Peak Area Ratio 60 min: human liver microsomes
Protocol: The compounds (10 μM) were incubated with pooled human liver microsomes in the presence and absence of the co-factor, β-Nicotinamide adenine dinucleotide phosphate (NADP^+), required for oxidative metabolism by the Cytochrome P-450 (CYP) and flavin containing monooxygenase (FMO) enzymes. A tandem liquid chromatography mass spectrometry (LC-MS/MS) method was developed and/or qualified for each compound for measuring relative stability of 6a, 6b, and 18 in the terminated reaction mixtures. The relative disappearance of the test compounds following 15, 30, and 60 min of incubation with liver microsomes, NADP^+, and an NADPH-regenerating system was determined in duplicate samples. 6a, 6b, and 18 stability following 0 and 60 min of incubation with liver microsomes in the absence of NADP^+ was also determined.
Samples for each test compound generated from the assay were analyzed as one batch by the qualified LC-MS/MS method. The sample batch consisted of the following: initial system check standards (three replicates), the assay samples (in duplicate) and the final system check standards (three replicates). A batch was considered acceptable if the system check injection acceptance criteria described above was met.
The study was conducted with cryopreserved human liver microsomes, pooled from 15 donors (mixed pool of male and female donors). Pooled donor microsomes were used in order to represent an “average” metabolic activity. The microsomes have been characterized by the supplier for Phase I (CYP1A2, CYP2A6, CYP2B6, CYP2C8, CYP2C9, CYP2C19, CYP2D6, CYP2E1, CYP3A4, CYP4A11 and FMO) and Phase II (UGT1A1, UGT1A4 and UGT1A9) enzymatic activity.
1. The assay was performed with 0.5 mg/mL human liver microsomes in 50 mM potassium phosphate buffer, pH 7.4 (PPB), and in the presence of an NADPH regenerating system (1.3 mM NADP^+, 3.3 mM glucose-6-phosphate, 0.4 U/mL glucose-6-phosphate dehydrogenase) and 3.3 mM MgCl2. All incubations were performed in duplicate. One concentration of test compound was tested (10 μM). 2. A stock solution of microsomes (20 mg/mL) was thawed in a 37° C. water bath on the day of the assay and then immediately placed on ice. The microsomes were then diluted with an appropriate volume of PPB, such that the final protein concentration in the assay was 0.5 mg/mL, and the final PPB concentration was 50 mM. 3. An appropriate aliquot of the 1 mM stock solution of the test compounds (in water) was added to the diluted microsomes, and then the mixture was warmed to 37° C. for 5 min in an incubator. […] These samples represent the time zero samples. 4. An aliquot (375 μL) of the pre-warmed liver microsomes and test compound mixture was dispensed into a well of a 24-well plate. A 125 μL aliquot of pre-warmed (37° C. for 5 min) 4-fold concentrated NADPH regenerating system solution was then added to start the reaction. Reaction mixtures (0.5 mL) were incubated in a shaking incubator (150 rpm) at 37° C. 5. One hundred μL of the reaction mixture was sampled following 15, 30, and 60 min of incubation. Each sample with test compound was immediately added to a chilled labeled centrifuge tube containing 100 μL of ice cold methanol to terminate the reaction. 6. All samples were mixed by vortex and then centrifuged (15,000×g for 10 min at 4° C.) to pellet the protein. An aliquot of the supernatant from each sample was then transferred to a clean, labeled centrifuge tube and stored at −70° C. until bioanalysis. 7. […] 8. As a control, test compound was incubated with microsomes in the absence of NADP^+. One hundred μL of the reaction mixture was sampled for control samples following 0 and 60 min of incubation as detailed above. 9. Data sheets with the date of the experiment, the Study No., the compound IDs, the sampling times, a plate map and any deviations to the protocol were recorded.
The mean of the test compound to the internal standard peak area ratios were calculated for the zero time sample.

T2 sequence (P28564 whole entry): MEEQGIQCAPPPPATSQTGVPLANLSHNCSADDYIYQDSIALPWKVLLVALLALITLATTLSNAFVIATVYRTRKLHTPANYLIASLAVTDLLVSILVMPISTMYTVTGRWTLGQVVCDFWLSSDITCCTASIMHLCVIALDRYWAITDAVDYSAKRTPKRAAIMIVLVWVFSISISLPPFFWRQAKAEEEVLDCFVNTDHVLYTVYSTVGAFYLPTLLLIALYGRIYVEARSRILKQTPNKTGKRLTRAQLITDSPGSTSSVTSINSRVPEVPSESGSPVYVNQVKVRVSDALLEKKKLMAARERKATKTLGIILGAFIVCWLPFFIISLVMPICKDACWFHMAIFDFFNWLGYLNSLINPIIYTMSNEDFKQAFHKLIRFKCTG
T1 sequence (P29474 whole entry): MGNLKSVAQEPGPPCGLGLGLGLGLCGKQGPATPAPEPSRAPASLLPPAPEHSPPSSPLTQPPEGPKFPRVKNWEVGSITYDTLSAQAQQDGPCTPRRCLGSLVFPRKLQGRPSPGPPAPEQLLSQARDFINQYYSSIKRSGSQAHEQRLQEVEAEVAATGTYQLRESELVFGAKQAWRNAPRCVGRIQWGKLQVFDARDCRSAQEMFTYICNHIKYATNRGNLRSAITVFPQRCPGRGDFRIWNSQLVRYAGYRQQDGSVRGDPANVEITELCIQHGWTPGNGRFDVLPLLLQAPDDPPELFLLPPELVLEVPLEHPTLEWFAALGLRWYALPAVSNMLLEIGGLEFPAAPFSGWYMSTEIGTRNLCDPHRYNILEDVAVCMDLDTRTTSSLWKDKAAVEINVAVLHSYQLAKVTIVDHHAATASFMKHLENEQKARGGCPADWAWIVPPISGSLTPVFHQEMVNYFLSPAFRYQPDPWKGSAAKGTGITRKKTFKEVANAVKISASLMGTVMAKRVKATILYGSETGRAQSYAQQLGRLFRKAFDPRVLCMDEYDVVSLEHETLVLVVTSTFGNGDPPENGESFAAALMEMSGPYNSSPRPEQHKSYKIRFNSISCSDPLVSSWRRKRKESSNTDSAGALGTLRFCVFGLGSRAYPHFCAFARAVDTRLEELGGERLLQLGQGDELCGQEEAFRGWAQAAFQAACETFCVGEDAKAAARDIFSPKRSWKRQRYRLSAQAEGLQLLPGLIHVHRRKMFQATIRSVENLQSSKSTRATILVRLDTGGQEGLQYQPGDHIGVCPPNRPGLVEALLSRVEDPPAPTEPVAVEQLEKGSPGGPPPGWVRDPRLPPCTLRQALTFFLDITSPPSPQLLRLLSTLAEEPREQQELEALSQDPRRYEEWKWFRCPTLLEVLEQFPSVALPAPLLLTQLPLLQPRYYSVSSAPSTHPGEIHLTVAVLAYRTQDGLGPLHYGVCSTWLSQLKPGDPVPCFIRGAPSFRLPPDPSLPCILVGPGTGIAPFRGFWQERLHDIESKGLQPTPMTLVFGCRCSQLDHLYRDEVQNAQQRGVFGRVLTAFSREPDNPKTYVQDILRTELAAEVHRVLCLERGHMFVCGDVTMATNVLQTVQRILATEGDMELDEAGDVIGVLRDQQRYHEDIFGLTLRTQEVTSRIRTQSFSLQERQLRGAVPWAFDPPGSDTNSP

SMILES	IC50 [1]	IC50 (5-HT1B)	reversal of tactile hyperthesia [2]	reversal of thermal hyperalgesia (antihyperalgesic effect) [2]	metabolic stability in human liver microsomes ([3]; 60 min incubation, 10 μM)	Peak Area Ratio 0 min ([3]; +NADP+, 10 μM)	Peak Area Ratio 15 min ([3]; +NADP+, 10 μM)	Peak Area Ratio 30 min ([3]; +NADP+, 10 μM)	Peak Area Ratio 60 min ([3]; +NADP+, 10 μM)	Peak Area Ratio 0 min ([3]; −NADP+, 10 μM)	Peak Area Ratio 60 min ([3]; −NADP+, 10 μM)	half-life at 10 μM ([3]; both sexes, pooled human liver microsomes, pH 7.4, human liver microsomes, with NADPH regenerating system, read-out: estimated half-life for disappearance from the microsomal reaction mixture)
CN1CCC(c2c[nH]c3ccc(NC(=N)c4cccs4)cc23)C1 (single isomer, unassigned) [Compound 6b, N-(3-(1-Methylpyrrolidin-3-yl)-1H-indol-5-yl)thiophene-2-carboximidamide]	20.6 µM	0.705 µM	reversal of tactile hyperthesia	reversal of thermal hyperalgesia; also recorded: clear antihyperalgesic effect	metabolically stable over 60 min of incubation	20.6	20.5	21.4	20.5	20.2	20.6	
CN1CCC(c2c[nH]c3ccc(NC(=N)c4cccs4)cc23)C1 (single isomer, unassigned) [Compound 6a, N-(3-(1-Methylpyrrolidin-3-yl)-1H-indol-5-yl)thiophene-2-carboximidamide]	45.5 µM	1.4 µM	not	only weakly		25.8	25.8	23.7	19.4	22.0	20.2	2.2 h
